Measured values reported in PubChem BioAssay (NCI).
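Values below derive from 48-hour exposures of cells grown in 96-well plates, with endpoints linearly interpolated between the two concentrations bracketing the appropriate inhibition level. GI50: concentration for 50% inhibition of growth. At the TGI there is no net growth.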

What was measured:
Experiment in all cases: DTP human tumour cell line panel, 48 h
RXF 393 renal = tested on: RXF 393 renal
SF-268 CNS = tested on: SF-268 CNS
MALME-3M melanoma = tested on: MALME-3M melanoma
OVCAR-3 ovarian = tested on: OVCAR-3 ovarian
A549 NSCLC = tested on: A549 NSCLC
KM12 colon = tested on: KM12 colon
TK-10 renal = tested on: TK-10 renal
HL-60(TB) leukemia = tested on: HL-60(TB) leukemia
NCI-H23 lung = tested on: NCI-H23 lung
SN12C renal = tested on: SN12C renal

SMILES | GI50 (RXF 393 renal) [µM] | TGI (RXF 393 renal) [µM] | GI50 (SF-268 CNS) [µM] | TGI (SF-268 CNS) [µM] | GI50 (MALME-3M melanoma) [µM] | TGI (MALME-3M melanoma) [µM] | GI50 (OVCAR-3 ovarian) [µM] | TGI (OVCAR-3 ovarian) [µM] | GI50 (A549 NSCLC) [µM] | TGI (A549 NSCLC) [µM] | GI50 (KM12 colon) [µM] | TGI (KM12 colon) [µM] | GI50 (TK-10 renal) [µM] | TGI (TK-10 renal) [µM] | GI50 (HL-60(TB) leukemia) [µM] | TGI (HL-60(TB) leukemia) [µM] | GI50 (NCI-H23 lung) [µM] | TGI (NCI-H23 lung) [µM] | GI50 (SN12C renal) [µM] | TGI (SN12C renal) [µM]
COc1ccc(N=c2nc3sc4cc(Cl)ccc4n3c(N)c2C#N)cc1 | 5.27 | > 100 | 4.29 | > 100 | 2.25 | 7.42 | 9.66 | 44.8 | 15.4 | > 100 | 2.47 | 6.89 | 4.61 | 45.5 | 11.4 | > 94.9 | 2.49 | 20.5 | 15.3 | > 100
COc1c2c(c(O)c3c4c(c(C)cc13)C1OC3(C(OC)OC5CC(C)(O)C(OC6CC(C)(O)C(O)C(C)O6)C(C)O5)OC1C(OC)(O4)C31CO1)C(=O)C(O)CC2OC1CC(C)(O)C(OC(C)=O)C(C)O1 (stereo not given) |  | < 0.01 |  | 0.0167 |  | < 0.01 |  | < 0.01 |  | 1.45 |  | < 0.01 |  | 18.6 |  | < 0.01 |  | < 0.01 |  | 0.113
CCOC(=O)C(Cc1cc(OC)c(CC(C(=O)OCC)C(=O)OCC)cc1OC)C(=O)OCC |  | 97.7 |  | > 100 |  | > 100 |  | > 100 |  | > 100 |  | > 100 |  | > 100 |  | > 100 |  | > 100 |  | > 100
O=c1[nH]c(=S)[nH]c2c1CCCN2 |  | > 100 |  | > 100 |  | > 100 |  | > 100 |  | > 100 |  | > 100 |  | > 100 |  | > 100 |  | > 100 |  | > 100
Nc1ccccc1SC(/C=C/NNC1=NC(c2ccccc2)C(c2ccccc2)=NN1)c1ccccc1 (stereo not given) |  | 27.1 |  | 17.1 |  | 30.1 |  | 26.1 |  | 33.4 |  | 29.1 |  | 33.3 |  | 13.1 |  | 21.4 |  | 31.5
S=C(Nc1ccc(-c2nc3ccccc3s2)cc1)Nc1ccc(-c2nc3ccccc3s2)cc1 | 15.9 | 50.4 | 23.6 | 94.8 | 20 | 65.4 | 24.5 | > 100 | 22.4 | 78.5 | 20.1 | > 100 | 18.3 | 63.2 | 35.7 | > 100 | 21.1 | 44.9 | 16.7 | 44.5
O=C1N=C2N=C(c3ccc(Cl)cc3)N(c3ccc(Cl)cc3)N2Sc2ccccc21 |  | > 100 |  | > 100 |  | > 100 |  | > 100 |  | > 100 |  | > 100 |  | > 100 |  | > 100 |  | > 100 |  | > 100
O=C(Cc1nc2ccccc2s1)C(=O)Nc1cccc(C(F)(F)F)c1 |  | > 100 |  | > 100 |  | > 100 |  | > 100 |  | > 100 |  | > 100 |  | > 100 |  | > 100 |  | > 100 |  | > 100
O=C(NNC(=O)c1ccncc1)C(=O)Nc1cc(Cl)c(Cl)cc1Cl |  | > 100 |  | > 100 |  | > 100 |  | > 100 |  | > 100 |  | > 100 |  | > 100 |  | > 100 |  | > 100 |  | > 100
